Measured values published in patent US20260097022A1, “COMPOUNDS AND USES THEREOF” (Integrated Biosciences, Inc., priority 2023, published 2026).

The molecules below were run on etoposide-treated IMR-90 cells (assay: Etoposide-induced senescence model, resazurin cell viability (screen and dose-response)). Details: etoposide-induced senescence model; ratio of IC50 values between etoposide- and DMSO-treated IMR-90 fibroblasts.
Format: cell-based, human
Experimental: Cell culture. Human lung fibroblast (IMR-90) cells were obtained from ATCC (CCL-186) and passaged less than 10 times (less than 30 population doublings) for all experiments described in this example, with the exception of high-passage cells used in the model of replicative senescence (see the section on Replicative senescence below). Cells were cultured in growth media comprising Eagle's Minimum Essential Medium (EMEM: ATCC 30-2003) supplemented with 10% fetal bovine serum (FBS: Thermo Fisher 16140071) and 1% penicillin-streptomycin (Thermo Fisher 15070063). Cells were incubated in a humidity-controlled incubator at 37° C., with 5% CO2. Cells were detached using trypsin-EDTA (0.05%; Gibco 25300120).
Etoposide-induced senescence. IMR-90 cells were cultured as described above. At between 30 to 50% confluence, the media was replaced with complete growth media containing vehicle (0.5% dimethyl sulfoxide: DMSO, MilliporeSigma D5879) or complete growth media containing 50 μM etoposide (prepared as a 1:200 dilution of a 10 mM stock solution in DMSO; etoposide, MilliporeSigma E1383). Cells were treated for 2 days, after which the media was replaced with fresh growth media and cells were allowed to recover for 4 days. Cells were then plated as described below.
Chemical screening. For all screening experiments. 99 μL of cells were plated into each well of a 96-well clear flat-bottom, black polystyrene tissue-culture-treated plate (Corning 3904) at a density of ˜10+ cells/well. Plates were incubated overnight for adhesion. The day after plating. 1 μL of each compound, prepared as either a 1 mM stock solution in DMSO (10 μM final concentration screen) or 0.1 mM stock solution in DMSO (1 μM final concentration screen), was added to each well using an Agilent Bravo liquid handler. A built-in slow mixing step involving aspirating and dispensing was used to enhance distribution of the added compounds in solution. Cells were incubated for 3 days, after which resazurin (MilliporeSigma R^7017) was added to each well to a final concentration of 0.15 mM. After an additional 1 day of incubation, the fluorescence excitation/emission at 550/590 nm was read using a SpectraMaxR M3 plate reader and manufacturer software (SoftMax Pro R 6). Experiments were performed in biological duplicate.
Three-fold serial dilutions of compound were prepared in DMSO, then added to cell plates (final concentration of DMSO. 1%). Cell viability was then assayed as detailed above, and resazurin fluorescence values were linearly interpolated with respect to values from empty and positive control (non-treatment) wells. Experiments were performed in biological duplicate each on two independent occasions. When possible, chemical stocks from commercial suppliers were used: econazole nitrate (Cayman Chemical 20223), artenimol (Cayman Chemical 19846), and ABT-263 (Cayman Chemical 11500) were from Cayman Chemical, and dehydrodeguelin was aliquoted from the screening library.
Calculation of cellular viability values in dose-response curves. […] For each sample, the fluorescence intensity value was normalized by the mean of two untreated control values. Cellular viability values are therefore indicated as fractions of the cellular viability of untreated controls. Vehicle (1% DMSO) control values are included in each dose-response curve. Experiments were performed in biological duplicate each on two independent occasions.
Calculation of baseline cellular viability values. […] Additionally, baseline cellular viability values were calculated for untreated cells at the start of the experiment. Resazurin was added to a final concentration of 0.15 mM on the day of seeding (corresponding to day 0 in FIG. 7).

Structure (SMILES)	Therapeutic Index (TI)
Cc1ccc(Cl)cc1NC(=O)CSc1nc2ccc(NC(=O)c3ccccc3C)cc2s1 [compound 46]	++ (compounds with a TI of 1 to 5 were labelled as ++)
CCOc1ccc(C(=O)Nc2ccc3nc(SCC(=O)Nc4ccc(C)cc4C)sc3c2)cc1 [compound 47]	++ (compounds with a TI of 1 to 5 were labelled as ++)
COc1ccc(NC(=O)CSc2nc3ccc(NC(=O)c4cccc(F)c4)cc3s2)cc1 [compound 48]	++ (compounds with a TI of 1 to 5 were labelled as ++)
CCOc1ccc(C(=O)Nc2ccc3nc(SCC(=O)N(C)c4ccccc4)sc3c2)cc1 [compound 49]	++ (compounds with a TI of 1 to 5 were labelled as ++)
CCCCOc1ccc(NC(=O)CSc2nc3ccc(NC(=O)c4ccccc4Br)cc3s2)cc1 [compound 50]	++ (compounds with a TI of 1 to 5 were labelled as ++)
O=C(CSc1nc2ccc(NC(=O)c3ccc(F)cc3)cc2s1)Nc1cccc(Cl)c1 [compound 51]	++ (compounds with a TI of 1 to 5 were labelled as ++)
COc1ccc(NC(=O)CSc2nc3ccc(NC(=O)c4ccccc4C)cc3s2)cc1 [compound 52]	++ (compounds with a TI of 1 to 5 were labelled as ++)
COc1cccc(C(=O)Nc2ccc3nc(SCC(=O)Nc4ccccc4)sc3c2)c1 [compound 53]	++ (compounds with a TI of 1 to 5 were labelled as ++)
CCCCOc1ccc(NC(=O)CSc2nc3ccc(NC(=O)c4cccc5ccccc45)cc3s2)cc1 [compound 54]	++ (compounds with a TI of 1 to 5 were labelled as ++)
COc1ccc(NC(=O)CSc2nc3ccc(NC(=O)c4cccc(C)c4)cc3s2)cc1 [compound 55]	++ (compounds with a TI of 1 to 5 were labelled as ++)
Cc1ccc(C(=O)Nc2ccc3nc(SCC(=O)Nc4ccccc4F)sc3c2)cc1 [compound 56]	++ (compounds with a TI of 1 to 5 were labelled as ++)
COc1ccc(NC(=O)CSc2nc3ccc(NC(=O)c4ccccc4)cc3s2)cc1 [compound 57]	++ (compounds with a TI of 1 to 5 were labelled as ++)
Cc1cc(C)c(NC(=O)CSc2nc3ccc(NC(=O)c4ccccc4Cl)cc3s2)c(C)c1 [compound 58]	++ (compounds with a TI of 1 to 5 were labelled as ++)
COc1ccccc1C(=O)Nc1ccc2nc(SCC(=O)Nc3c(C)cccc3C)sc2c1 [compound 59]	++ (compounds with a TI of 1 to 5 were labelled as ++)
COc1ccc(C(=O)Nc2ccc3nc(SCC(=O)Nc4ccccc4C)sc3c2)cc1 [compound 60]	++ (compounds with a TI of 1 to 5 were labelled as ++)
Cc1ccc(Cl)cc1NC(=O)CSc1nc2ccc(NC(=O)c3ccc(F)cc3)cc2s1 [compound 61]	++ (compounds with a TI of 1 to 5 were labelled as ++)
O=C(CSc1nc2ccc(NC(=O)c3ccc(Cl)cc3)cc2s1)Nc1ccc(F)cc1 [compound 62]	++ (compounds with a TI of 1 to 5 were labelled as ++)
COc1ccc(C(=O)Nc2ccc3nc(SCC(=O)Nc4ccccc4Cl)sc3c2)cc1 [compound 63]	++ (compounds with a TI of 1 to 5 were labelled as ++)
CCOc1ccc(C(=O)Nc2ccc3nc(SCC(=O)Nc4ccccc4Cl)sc3c2)cc1 [compound 64]	++ (compounds with a TI of 1 to 5 were labelled as ++)
CCC(Sc1nc2ccc(NC(=O)c3ccc(C)cc3)cc2s1)C(=O)Nc1ccc(Cl)cc1 (stereo not drawn) [compound 65]	++ (compounds with a TI of 1 to 5 were labelled as ++)
COc1ccc(NC(=O)CSc2nc3ccc(NC(=O)c4ccccc4Cl)cc3s2)cc1 [compound 66]	++ (compounds with a TI of 1 to 5 were labelled as ++)
COC(=O)c1ccccc1NC(=O)CSc1nc2ccc(NC(=O)c3ccccc3C)cc2s1 [compound 67]	++ (compounds with a TI of 1 to 5 were labelled as ++)
O=C(CSc1nc2ccc(NC(=O)c3ccccc3)cc2s1)Nc1cccc(C(F)(F)F)c1 [compound 68]	++ (compounds with a TI of 1 to 5 were labelled as ++)

Structure (SMILES)	Therapeutic Index (TI)
CCc1cccc(CC)c1NC(=O)CSc1nc2ccc(NC(=O)c3ccccc3C)cc2s1 [compound 69]	++ (compounds with a TI of 1 to 5 were labelled as ++)
Cc1cccc(C(=O)Nc2ccc3nc(SCC(=O)Nc4cc(Cl)ccc4C)sc3c2)c1 [compound 70]	++ (compounds with a TI of 1 to 5 were labelled as ++)
COc1ccccc1C(=O)Nc1ccc2nc(SCC(=O)N(C)c3ccccc3)sc2c1 [compound 71]	++ (compounds with a TI of 1 to 5 were labelled as ++)
Cc1cc(C)c(NC(=O)CSc2nc3ccc(NC(=O)c4ccccc4C)cc3s2)c(C)c1 [compound 72]	++ (compounds with a TI of 1 to 5 were labelled as ++)
Cc1ccccc1C(=O)Nc1ccc2nc(SCC(=O)Nc3ccc([N+](=O)[O-])cc3)sc2c1 [compound 73]	++ (compounds with a TI of 1 to 5 were labelled as ++)
COc1ccc(C(=O)Nc2ccc3nc(SCC(=O)Nc4ccc(C)c(Cl)c4)sc3c2)cc1 [compound 74]	++ (compounds with a TI of 1 to 5 were labelled as ++)
Cc1ccccc1C(=O)Nc1ccc2nc(SCC(N)=O)sc2c1 [compound 75]	++ (compounds with a TI of 1 to 5 were labelled as ++)
CCCCOc1ccc(C(=O)Nc2ccc3nc(SCC(=O)Nc4ccccc4)sc3c2)cc1 [compound 76]	++ (compounds with a TI of 1 to 5 were labelled as ++)
CCCCOc1ccc(NC(=O)CSc2nc3ccc(NC(=O)c4ccc(Cl)cc4)cc3s2)cc1 [compound 77]	++ (compounds with a TI of 1 to 5 were labelled as ++)
CCCCOc1ccc(C(=O)Nc2ccc3nc(SCC(=O)Nc4ccc(C(C)=O)cc4)sc3c2)cc1 [compound 78]	++ (compounds with a TI of 1 to 5 were labelled as ++)
COc1ccc(NC(=O)CSc2nc3ccc(NC(=O)c4cccc(Cl)c4)cc3s2)cc1 [compound 79]	++ (compounds with a TI of 1 to 5 were labelled as ++)
CCOc1ccc(C(=O)Nc2ccc3nc(SCC(=O)Nc4cccc(C)c4)sc3c2)cc1 [compound 80]	++ (compounds with a TI of 1 to 5 were labelled as ++)
Cc1ccc(C(=O)Nc2ccc3nc(SCC(=O)N(C)c4ccccc4)sc3c2)cc1 [compound 81]	++ (compounds with a TI of 1 to 5 were labelled as ++)
CCCCOc1ccc(C(=O)Nc2ccc3nc(SCC(=O)Nc4ccc(C(C)C)cc4)sc3c2)cc1 [compound 82]	++ (compounds with a TI of 1 to 5 were labelled as ++)
COc1ccc(C(=O)Nc2ccc3nc(SCC(=O)Nc4cccc(C)c4)sc3c2)cc1 [compound 83]	++ (compounds with a TI of 1 to 5 were labelled as ++)
COc1ccccc1C(=O)Nc1ccc2nc(SCC(=O)Nc3ccc(F)cc3)sc2c1 [compound 84]	++ (compounds with a TI of 1 to 5 were labelled as ++)
COc1ccc(NC(=O)CSc2nc3ccc(NC(=O)c4ccc(OC)cc4)cc3s2)cc1 [compound 85]	++ (compounds with a TI of 1 to 5 were labelled as ++)
CCCCOc1ccc(NC(=O)CSc2nc3ccc(NC(=O)c4ccc(OCCCC)cc4)cc3s2)cc1 [compound 86]	++ (compounds with a TI of 1 to 5 were labelled as ++)
O=C(CSc1nc2ccc(NC(=O)c3ccccc3)cc2s1)Nc1cccc([N+](=O)[O-])c1 [compound 87]	++ (compounds with a TI of 1 to 5 were labelled as ++)
Cc1ccc(NC(=O)CSc2nc3ccc(NC(=O)c4ccccc4)cc3s2)c(C)c1 [compound 88]	++ (compounds with a TI of 1 to 5 were labelled as ++)
CCCCOc1ccc(NC(=O)CSc2nc3ccc(NC(=O)c4ccccc4)cc3s2)cc1 [compound 89]	++ (compounds with a TI of 1 to 5 were labelled as ++)
Cc1ccc(NC(=O)C(C)Sc2nc3ccc(NC(=O)c4ccc(Cl)cc4)cc3s2)cc1 (stereo not drawn) [compound 90]	++ (compounds with a TI of 1 to 5 were labelled as ++)
